≈ marks a conversion by molar mass, not a printed value.
Columns and labels:
Staphylococcus aureus [1] = assay: In vitro antibacterial activity against S. aureus(GC 2220 MRSA) without pre-incubation in mouse serum; format: functional
Pseudomonas aeruginosa [2] = assay: In vitro antibacterial activity against Pseudomonas aeruginosa (ATCC 27853) without pre-incubation in mouse serum; format: functional
Pseudomonas aeruginosa [3] = assay: In vitro antibacterial activity against P. aeruginosa(GC 1544 oprd) without pre-incubation in mouse serum; format: functional
Mus musculus [4] = assay: Antibacterial activity against Escherichia coli (311) infection in mice after single oral dose, activity expressed as ED50; format: functional
Morganella morganii [5] = assay: In vitro antibacterial activity against M. morganii(GC 2213) without preincubation in mouse serum
Enterococcus faecalis [6] = assay: In vitro antibacterial activity against E. faecalis(GC 842) without pre-incubation in mouse serum
[7] = tested on: Stenotrophomonas maltophilia; assay: In vitro antibacterial activity against X. maltophilia(GC 562) without pre-incubation in mouse serum
Escherichia coli [8] = assay: In vitro antibacterial activity expressed as MIC against E. coli(GC 2205) without pre-incubation in mouse serum; format: functional
Mus musculus [9] = assay: Antibacterial activity against Escherichia coli (311) infection in mice after single subcutaneous dose, activity expressed as ED50; format: functional; conditions: sc
Escherichia coli [10] = assay: In vitro antibacterial activity expressed as MIC against E. coli(GC 1792) without pre-incubation in mouse serum; format: functional
Enterobacter cloacae [11] = assay: In vitro antibacterial activity against E. cloacae(GC 2209) without pre-incubation in mouse serum; format: functional
[12] = target: T1, Dipeptidase 1 (Sus scrofa) (UniProt P22412); assay: Relative hydrolysis by hog Dehydropeptidase; format: functional
T1 sequence (whole entry): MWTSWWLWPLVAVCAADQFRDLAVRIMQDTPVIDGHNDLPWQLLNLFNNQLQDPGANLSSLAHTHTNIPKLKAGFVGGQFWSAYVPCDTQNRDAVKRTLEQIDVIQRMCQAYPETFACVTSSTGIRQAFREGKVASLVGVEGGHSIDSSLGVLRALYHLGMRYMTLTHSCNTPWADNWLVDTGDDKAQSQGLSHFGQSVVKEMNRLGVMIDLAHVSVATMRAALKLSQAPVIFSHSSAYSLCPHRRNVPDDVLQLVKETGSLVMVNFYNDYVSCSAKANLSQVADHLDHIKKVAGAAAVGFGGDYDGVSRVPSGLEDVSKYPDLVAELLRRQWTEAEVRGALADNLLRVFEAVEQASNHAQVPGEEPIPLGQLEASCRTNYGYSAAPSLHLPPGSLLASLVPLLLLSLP

Enterococcus faecium [13] = assay: In vitro for antibacterial activity against E. faecium(GC 1182) without pre-incubation in mouse serum; format: functional
Citrobacter freundii [14] = assay: In vitro antibacterial activity against C. freundii(GC 2211) without preincubation in mouse serum; format: functional
Staphylococcus aureus [15] = assay: In vitro antibacterial activity against S. aureus(ATCC 29213) without pre-incubation in mouse serum; format: functional
[16] = tested on: Acinetobacter calcoaceticus; assay: In vitro antibacterial activity against Acinetobacter calcoaceticus (GC 756) without preincubation in mouse serum; format: functional
Escherichia coli [17] = assay: In vitro antibacterial activity expressed as MIC against Escherichia coli (ATCC 25922) without pre-incubation in mouse serum; format: functional
Enterococcus faecalis [18] = assay: In vitro antibacterial activity against E. faecalis(GC 842) without pre-incubation in mouse serum; format: functional
Staphylococcus aureus [19] = assay: In vitro antibacterial activity against S. aureus(GC 2220 MRSA) following pre-incubation in mouse serum; format: functional
Pseudomonas aeruginosa [20] = assay: In vitro antibacterial activity against P. aeruginosa(GC 1544 oprd) following pre-incubation in mouse serum; format: functional
Escherichia coli [21] = assay: In vitro antibacterial activity expressed as MIC against E. coli(GC 1792) following pre-incubation in mouse serum; format: functional
Escherichia coli [22] = assay: In vitro antibacterial activity expressed as MIC against Escherichia coli (ATCC 25922) following pre-incubation in mouse serum; format: functional
Staphylococcus aureus [23] = assay: In vitro antibacterial activity against S aureus(ATCC 29213) following preincubation in mouse serum; format: functional
Citrobacter freundii [24] = assay: In vitro antibacterial activity against C. freundii(GC 2211) following pre-incubation in mouse serum; format: functional
[25] = tested on: Stenotrophomonas maltophilia; assay: In vitro antibacterial activity against X. maltophilia(GC 562) without pre-incubation in mouse serum; format: functional
Enterococcus faecium [26] = assay: In vitro for antibacterial activity against E. faecium(GC 1182) following pre-incubation in mouse serum; format: functional
Morganella morganii [27] = assay: In vitro antibacterial activity against M. morganii(GC 2213) without pre-incubation in mouse serum; format: functional
Pseudomonas aeruginosa [28] = assay: In vitro antibacterial activity against Pseudomonas aeruginosa (ATCC 27853) following pre-incubation in mouse serum; format: functional
Morganella morganii [29] = assay: In vitro antibacterial activity against M. morganii(GC 2213) following pre-incubation in mouse serum; format: functional
Enterobacter cloacae [30] = assay: In vitro antibacterial activity against E. cloacae(GC 2209) following preincubation in mouse serum; format: functional
[31] = tested on: Stenotrophomonas maltophilia; assay: In vitro antibacterial activity against X. maltophilia(GC 562) following pre-incubation in mouse serum; format: functional
[32] = tested on: Acinetobacter calcoaceticus; assay: In vitro antibacterial activity against Acinetobacter calcoaceticus (GC 756) following preincubation in mouse serum; format: functional
Escherichia coli [33] = assay: In vitro antibacterial activity expressed as MIC against E. coli(GC 2205) following pre-incubation in mouse serum; format: functional
Enterococcus faecalis [34] = assay: In vitro antibacterial activity against E. faecalis(GC 842) following pre-incubation in mouse serum; format: functional

SMILES | MIC (Staphylococcus aureus [1]) | MIC (Pseudomonas aeruginosa [2]) | MIC (Pseudomonas aeruginosa [3]) | ED50 (Mus musculus [4]) | MIC (Escherichia coli [8]) | ED50 (Mus musculus [9]) | MIC (Escherichia coli [10]) | MIC (Enterobacter cloacae [11]) | Relative hydrolysis [12] | MIC (Enterococcus faecium [13]) | MIC (Citrobacter freundii [14]) | MIC (Staphylococcus aureus [15]) | MIC [16] | MIC (Escherichia coli [17]) | MIC (Enterococcus faecalis [18]) | MIC (Staphylococcus aureus [19]) | MIC (Pseudomonas aeruginosa [20]) | MIC (Escherichia coli [21]) | MIC (Escherichia coli [22]) | MIC (Staphylococcus aureus [23]) | further results
C[C@@H](O)[C@H]1C(=O)N2C(C(=O)O)=C(S[C@@H]3CCO[C@@H]3CN)[C@H](C)[C@H]12 | 1 µg/mL (≈ 2.92 µM) | 8 µg/mL (≈ 23.4 µM) | 16 µg/mL (≈ 46.7 µM) | 3.8 mg/kg | < 0.06 µg/mL | 0.34 mg/kg | < 0.06 µg/mL | < 0.06 µg/mL | 8.5 | 64 µg/mL (≈ 187 µM) | < 0.06 µg/mL | < 0.06 µg/mL | 2 µg/mL (≈ 5.84 µM) | < 0.06 µg/mL |  |  |  |  |  |  | MIC (Morganella morganii [5]): 0.5 µg/mL (≈ 1.46 µM); MIC (Enterococcus faecalis [6]): 0.5 µg/mL (≈ 1.46 µM); MIC [7]: > 128 µg/mL
CCOC(=O)OCOC(=O)C1=C(S[C@@H]2CCO[C@@H]2CNC(=O)OCOC(=O)C(C)C)[C@H](C)C2[C@@H]([C@@H](C)O)C(=O)N12 (stereo not given in full) | 128 µg/mL (≈ 217 µM) | > 128 µg/mL | > 128 µg/mL | 0.56 mg/kg | 20 µg/mL (≈ 34 µM) | 0.4 mg/kg | 16 µg/mL (≈ 27.2 µM) | > 128 µg/mL | 11 | > 128 µg/mL | > 128 µg/mL | 4 µg/mL (≈ 6.8 µM) | > 128 µg/mL | 32 µg/mL (≈ 54.4 µM) | 64 µg/mL (≈ 109 µM) | 4 µg/mL (≈ 6.8 µM) | 32 µg/mL (≈ 54.4 µM) | 0.06 µg/mL (≈ 0.102 µM) | < 0.06 µg/mL | 0.06 µg/mL (≈ 0.102 µM) | MIC (Citrobacter freundii [24]): 0.25 µg/mL (≈ 0.425 µM); MIC [25]: > 128 µg/mL; MIC (Enterococcus faecium [26]): 128 µg/mL (≈ 217 µM); MIC (Morganella morganii [27]): 128 µg/mL (≈ 217 µM); MIC (Pseudomonas aeruginosa [28]): 16 µg/mL (≈ 27.2 µM); MIC (Morganella morganii [29]): 1 µg/mL (≈ 1.7 µM); MIC (Enterobacter cloacae [30]): 0.12 µg/mL (≈ 0.204 µM); MIC [31]: > 128 µg/mL; MIC [32]: 4 µg/mL (≈ 6.8 µM); MIC (Escherichia coli [33]): 0.06 µg/mL (≈ 0.102 µM); MIC (Enterococcus faecalis [34]): 2 µg/mL (≈ 3.4 µM)
CCOC(=O)OCOC(=O)C1=C(S[C@@H]2CCO[C@@H]2CN)[C@H](C)C2[C@@H]([C@@H](C)O)C(=O)N12.Cl (stereo not given in full) | 64 µg/mL | 128 µg/mL | > 128 µg/mL | 8.2 mg/kg | 1 µg/mL | 0.62 mg/kg | 0.5 µg/mL | 2 µg/mL | 11 | 128 µg/mL | 4 µg/mL | 1 µg/mL | 64 µg/mL | 0.5 µg/mL | 16 µg/mL | 2 µg/mL | 32 µg/mL | < 0.06 µg/mL | < 0.06 µg/mL | 0.03 µg/mL | MIC (Citrobacter freundii [24]): 0.25 µg/mL; MIC [25]: > 128 µg/mL; MIC (Enterococcus faecium [26]): 128 µg/mL; MIC (Morganella morganii [27]): 16 µg/mL; MIC (Pseudomonas aeruginosa [28]): 8 µg/mL; MIC (Morganella morganii [29]): 0.5 µg/mL; MIC (Enterobacter cloacae [30]): 0.12 µg/mL; MIC [31]: > 128 µg/mL; MIC [32]: 2 µg/mL; MIC (Escherichia coli [33]): < 0.06 µg/mL; MIC (Enterococcus faecalis [34]): 2 µg/mL
CCOC(=O)OCOC(=O)C1=C(S[C@@H]2CCO[C@@H]2CNC(=O)OC(C)OC(C)=O)[C@H](C)C2[C@@H]([C@@H](C)O)C(=O)N12 (stereo not given in full) | > 128 µg/mL | > 128 µg/mL | > 128 µg/mL | 0.83 mg/kg | 1 µg/mL (≈ 1.74 µM) | 0.59 mg/kg | 8 µg/mL (≈ 13.9 µM) | 64 µg/mL (≈ 111 µM) | 4.9 | > 128 µg/mL | 128 µg/mL (≈ 223 µM) | 8 µg/mL (≈ 13.9 µM) | > 128 µg/mL | 4 µg/mL (≈ 6.96 µM) | 64 µg/mL (≈ 111 µM) | 2 µg/mL (≈ 3.48 µM) | 32 µg/mL (≈ 55.7 µM) | < 0.06 µg/mL | < 0.06 µg/mL | 0.03 µg/mL (≈ 0.0522 µM) | MIC (Citrobacter freundii [24]): 0.25 µg/mL (≈ 0.435 µM); MIC [25]: > 128 µg/mL; MIC (Enterococcus faecium [26]): 128 µg/mL (≈ 223 µM); MIC (Morganella morganii [27]): 32 µg/mL (≈ 55.7 µM); MIC (Pseudomonas aeruginosa [28]): 16 µg/mL (≈ 27.8 µM); MIC (Morganella morganii [29]): 1 µg/mL (≈ 1.74 µM); MIC (Enterobacter cloacae [30]): 0.12 µg/mL (≈ 0.209 µM); MIC [31]: > 128 µg/mL; MIC [32]: 4 µg/mL (≈ 6.96 µM); MIC (Escherichia coli [33]): 0.06 µg/mL (≈ 0.104 µM); MIC (Enterococcus faecalis [34]): 2 µg/mL (≈ 3.48 µM)
